{"source": "patent US11691980B2", "about": "“Liphagal analog and multi-targeted kinase inhibitor containing liphagal or analog thereof” (TOHOKU UNIVERSITY, priority 2017, dated 2023)", "type_in_all_cases": "biochemical", "key": {"DCAMKL2": {"biological_target": "T1, DCAMKL2 (Homo sapiens, UniProt Q8N568)", "T1 construct": "purchased Carna Biosciences", "assay": "mobility shift assay"}, "NEK9": {"biological_target": "T2, NEK9 (Homo sapiens, UniProt Q8TD19)", "T2 construct": "purchased Carna Biosciences", "assay": "mobility shift assay"}, "JAK3": {"biological_target": "T3, JAK3 (Homo sapiens, UniProt P52333)", "T3 construct": "purchased Carna Biosciences", "assay": "mobility shift assay"}, "IRR": {"biological_target": "T4, IRR (Homo sapiens, UniProt P14616)", "T4 construct": "purchased Carna Biosciences", "T4 sequence (P14616 27-1297)": "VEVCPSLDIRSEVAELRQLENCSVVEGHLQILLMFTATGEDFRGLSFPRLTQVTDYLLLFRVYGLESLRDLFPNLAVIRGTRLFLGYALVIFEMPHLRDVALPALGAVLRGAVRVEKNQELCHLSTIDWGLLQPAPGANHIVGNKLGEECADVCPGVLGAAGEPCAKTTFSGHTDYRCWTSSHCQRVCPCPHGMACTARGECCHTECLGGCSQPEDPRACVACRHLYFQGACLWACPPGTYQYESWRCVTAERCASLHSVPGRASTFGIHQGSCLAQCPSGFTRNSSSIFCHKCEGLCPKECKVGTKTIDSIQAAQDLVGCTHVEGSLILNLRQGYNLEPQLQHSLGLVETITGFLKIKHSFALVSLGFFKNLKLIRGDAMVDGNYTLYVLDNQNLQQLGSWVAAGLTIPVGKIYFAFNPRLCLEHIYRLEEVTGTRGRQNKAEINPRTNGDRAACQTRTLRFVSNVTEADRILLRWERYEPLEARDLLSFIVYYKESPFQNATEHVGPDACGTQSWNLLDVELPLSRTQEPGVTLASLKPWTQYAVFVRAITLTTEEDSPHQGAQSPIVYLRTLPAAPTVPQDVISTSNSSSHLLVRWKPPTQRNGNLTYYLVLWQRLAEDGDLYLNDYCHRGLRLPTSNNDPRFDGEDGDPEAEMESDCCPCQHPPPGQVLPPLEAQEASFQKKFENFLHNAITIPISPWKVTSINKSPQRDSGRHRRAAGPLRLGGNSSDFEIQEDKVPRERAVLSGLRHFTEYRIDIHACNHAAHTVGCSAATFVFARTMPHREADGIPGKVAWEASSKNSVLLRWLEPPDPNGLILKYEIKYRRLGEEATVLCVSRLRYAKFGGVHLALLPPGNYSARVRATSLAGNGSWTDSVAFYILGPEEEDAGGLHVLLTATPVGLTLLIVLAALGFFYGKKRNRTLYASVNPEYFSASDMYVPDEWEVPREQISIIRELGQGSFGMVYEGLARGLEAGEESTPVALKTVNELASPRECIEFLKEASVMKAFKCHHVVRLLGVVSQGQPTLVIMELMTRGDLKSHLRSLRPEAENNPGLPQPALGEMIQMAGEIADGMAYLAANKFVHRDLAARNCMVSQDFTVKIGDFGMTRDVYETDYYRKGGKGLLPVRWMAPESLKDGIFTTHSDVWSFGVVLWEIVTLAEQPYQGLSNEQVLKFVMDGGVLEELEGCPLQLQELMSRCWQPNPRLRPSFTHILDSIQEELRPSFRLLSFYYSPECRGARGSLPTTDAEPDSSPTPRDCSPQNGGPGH", "assay": "mobility shift assay"}, "PAK5": {"biological_target": "T5, PAK5 (Homo sapiens, UniProt Q9P286)", "T5 construct": "purchased Carna Biosciences", "assay": "mobility shift assay"}, "PKCζ": {"biological_target": "T6, PKCζ (Homo sapiens, UniProt Q05513)", "T6 construct": "purchased Carna Biosciences", "assay": "mobility shift assay"}, "PAK6": {"biological_target": "T7, PAK6 (Homo sapiens, UniProt Q9NQU5)", "T7 construct": "purchased Carna Biosciences", "assay": "mobility shift assay"}, "INSR": {"biological_target": "T8, INSR (Homo sapiens, UniProt P06213)", "T8 construct": "purchased Carna Biosciences", "assay": "mobility shift assay"}, "MAP2K3_Cascade": {"biological_target": "T9, MAP2K3_Cascade (Homo sapiens, UniProt P46734)", "T9 construct": "purchased Carna Biosciences", "assay": "mobility shift assay"}, "PGK": {"biological_target": "T10, PGK (Homo sapiens, UniProt Q13976)", "T10 construct": "purchased Carna Biosciences", "assay": "mobility shift assay"}, "NuaK1": {"biological_target": "T11, NuaK1 (Homo sapiens, UniProt O60285)", "T11 construct": "purchased Carna Biosciences", "assay": "mobility shift assay"}, "TRKB": {"biological_target": "T12, TRKB (Homo sapiens, UniProt Q16620)", "T12 construct": "purchased Carna Biosciences", "assay": "mobility shift assay"}, "EPHA7": {"biological_target": "T13, EPHA7 (Homo sapiens, UniProt Q15375)", "T13 construct": "purchased Carna Biosciences", "assay": "mobility shift assay"}, "EGFR(α746-750)": {"biological_target": "T14, EGFR(α746-750) (Homo sapiens, UniProt P00533, DEL746-750)", "T14 construct": "purchased Carna Biosciences", "assay": "mobility shift assay"}, "OK1δ": {"biological_target": "T15, OK1δ (Homo sapiens, UniProt P48730)", "T15 construct": "purchased Carna Biosciences", "assay": "mobility shift assay"}, "IKKα": {"biological_target": "T16, IKKα (Homo sapiens, UniProt O15111)", "T16 construct": "purchased Carna Biosciences", "assay": "IMAP Assay"}, "EPHB1": {"biological_target": "T17, EPHB1 (Homo sapiens, UniProt P54762)", "T17 construct": "purchased Carna Biosciences", "T17 sequence (P54762 18-984)": "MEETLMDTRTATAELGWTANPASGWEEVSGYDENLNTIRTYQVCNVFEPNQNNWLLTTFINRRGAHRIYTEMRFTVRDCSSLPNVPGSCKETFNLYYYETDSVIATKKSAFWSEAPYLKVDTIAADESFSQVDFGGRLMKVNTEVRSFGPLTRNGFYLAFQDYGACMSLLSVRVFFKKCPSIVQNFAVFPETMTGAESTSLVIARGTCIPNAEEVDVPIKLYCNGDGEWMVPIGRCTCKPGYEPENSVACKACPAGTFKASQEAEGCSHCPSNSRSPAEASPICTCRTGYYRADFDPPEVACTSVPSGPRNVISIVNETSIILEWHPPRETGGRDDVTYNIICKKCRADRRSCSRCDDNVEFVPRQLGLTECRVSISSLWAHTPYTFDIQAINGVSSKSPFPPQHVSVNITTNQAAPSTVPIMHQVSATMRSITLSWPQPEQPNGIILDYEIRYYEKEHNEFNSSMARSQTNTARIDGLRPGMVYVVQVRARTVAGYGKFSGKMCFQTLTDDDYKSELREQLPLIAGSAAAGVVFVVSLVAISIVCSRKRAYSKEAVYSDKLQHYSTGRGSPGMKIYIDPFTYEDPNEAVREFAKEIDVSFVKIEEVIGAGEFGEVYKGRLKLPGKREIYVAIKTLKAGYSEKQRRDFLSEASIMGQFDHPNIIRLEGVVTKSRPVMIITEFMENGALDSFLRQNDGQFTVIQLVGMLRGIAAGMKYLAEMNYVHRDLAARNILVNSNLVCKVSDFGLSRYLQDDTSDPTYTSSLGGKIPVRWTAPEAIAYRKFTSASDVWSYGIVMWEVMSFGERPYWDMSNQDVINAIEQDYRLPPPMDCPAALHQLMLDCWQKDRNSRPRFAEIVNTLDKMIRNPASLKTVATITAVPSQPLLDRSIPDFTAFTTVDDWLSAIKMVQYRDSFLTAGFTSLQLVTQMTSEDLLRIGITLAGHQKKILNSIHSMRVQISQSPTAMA", "assay": "mobility shift assay"}, "Haspin": {"biological_target": "T18, Haspin (Homo sapiens, UniProt Q8TF76)", "T18 construct": "purchased Carna Biosciences", "assay": "mobility shift assay"}, "LTK": {"biological_target": "T19, LTK (Homo sapiens, UniProt P29376)", "T19 construct": "purchased Carna Biosciences", "assay": "mobility shift assay"}, "DYRK3": {"biological_target": "T20, DYRK3 (Homo sapiens, UniProt O43781)", "T20 construct": "purchased Carna Biosciences", "assay": "mobility shift assay"}, "MAPXK2 Cascade": {"system": "MAPXK2 Cascade", "assay": "mobility shift assay", "conditions": "10 μM"}, "HPK1": {"biological_target": "T21, HPK1 (Homo sapiens, UniProt Q86Z02)", "T21 construct": "purchased Carna Biosciences", "assay": "mobility shift assay"}, "CDC7/ASK": {"biological_target": "T22, CDC7/ASK (Homo sapiens, UniProt O00311)", "T22 construct": "purchased Carna Biosciences", "T22 sequence (O00311 whole entry)": "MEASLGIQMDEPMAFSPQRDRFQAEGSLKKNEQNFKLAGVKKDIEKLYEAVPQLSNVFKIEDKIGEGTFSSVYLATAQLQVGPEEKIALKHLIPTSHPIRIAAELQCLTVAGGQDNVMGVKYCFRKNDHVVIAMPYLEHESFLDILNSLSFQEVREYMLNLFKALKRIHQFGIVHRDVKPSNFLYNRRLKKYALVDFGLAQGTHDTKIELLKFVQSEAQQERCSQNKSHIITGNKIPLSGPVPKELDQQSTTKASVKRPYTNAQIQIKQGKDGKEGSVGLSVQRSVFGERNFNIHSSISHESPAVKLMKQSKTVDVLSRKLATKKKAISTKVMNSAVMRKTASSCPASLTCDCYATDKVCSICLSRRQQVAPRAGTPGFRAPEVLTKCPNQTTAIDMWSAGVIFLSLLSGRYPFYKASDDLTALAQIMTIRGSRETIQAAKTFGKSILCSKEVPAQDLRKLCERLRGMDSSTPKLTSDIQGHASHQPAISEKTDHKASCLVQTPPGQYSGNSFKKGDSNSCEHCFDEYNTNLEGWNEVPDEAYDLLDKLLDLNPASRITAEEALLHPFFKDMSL", "T22 sequence (Q9UBU7 whole entry partner)": "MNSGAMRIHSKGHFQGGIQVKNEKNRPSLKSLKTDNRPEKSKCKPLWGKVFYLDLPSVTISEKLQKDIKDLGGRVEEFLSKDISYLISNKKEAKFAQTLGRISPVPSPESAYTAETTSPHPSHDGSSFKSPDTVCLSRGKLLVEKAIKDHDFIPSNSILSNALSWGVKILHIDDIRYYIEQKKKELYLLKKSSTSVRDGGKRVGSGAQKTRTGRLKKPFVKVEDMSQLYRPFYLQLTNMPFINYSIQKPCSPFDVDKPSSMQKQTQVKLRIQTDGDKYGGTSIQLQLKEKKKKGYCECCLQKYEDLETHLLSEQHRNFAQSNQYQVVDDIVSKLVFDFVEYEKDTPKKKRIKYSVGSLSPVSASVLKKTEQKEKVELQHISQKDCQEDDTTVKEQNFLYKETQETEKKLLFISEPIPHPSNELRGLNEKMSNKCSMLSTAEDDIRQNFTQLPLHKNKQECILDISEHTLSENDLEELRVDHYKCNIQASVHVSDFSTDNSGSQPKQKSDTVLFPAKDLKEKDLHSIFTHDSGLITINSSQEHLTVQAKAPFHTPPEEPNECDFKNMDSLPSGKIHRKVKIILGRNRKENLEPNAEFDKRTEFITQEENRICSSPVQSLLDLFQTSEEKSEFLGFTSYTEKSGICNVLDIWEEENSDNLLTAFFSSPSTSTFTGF", "assay": "mobility shift assay"}, "PKR": {"biological_target": "T23, PKR (Homo sapiens, UniProt P19525)", "T23 construct": "purchased Carna Biosciences", "assay": "IMAP Assay"}, "Etk2": {"biological_target": "T24, Etk2 (Homo sapiens, UniProt P28482)", "T24 construct": "purchased Carna Biosciences", "T24 sequence (P28482 whole entry)": "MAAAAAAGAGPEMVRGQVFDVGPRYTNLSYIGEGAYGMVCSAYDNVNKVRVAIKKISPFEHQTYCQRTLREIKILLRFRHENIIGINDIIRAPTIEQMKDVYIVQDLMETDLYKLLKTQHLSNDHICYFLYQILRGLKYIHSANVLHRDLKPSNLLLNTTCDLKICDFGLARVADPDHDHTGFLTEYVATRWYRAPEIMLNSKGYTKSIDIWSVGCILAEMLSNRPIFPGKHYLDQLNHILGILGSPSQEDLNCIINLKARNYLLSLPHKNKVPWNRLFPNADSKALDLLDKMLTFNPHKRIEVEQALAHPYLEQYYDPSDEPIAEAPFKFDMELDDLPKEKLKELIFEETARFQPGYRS", "assay": "mobility shift assay"}, "MAPKAPK3": {"biological_target": "T25, MAPKAPK3 (Homo sapiens, UniProt Q16644)", "T25 construct": "purchased Carna Biosciences", "assay": "mobility shift assay"}, "RSK4": {"biological_target": "T26, RSK4 (Homo sapiens, UniProt Q9UK32)", "T26 construct": "purchased Carna Biosciences", "T26 sequence (Q9UK32 whole entry)": "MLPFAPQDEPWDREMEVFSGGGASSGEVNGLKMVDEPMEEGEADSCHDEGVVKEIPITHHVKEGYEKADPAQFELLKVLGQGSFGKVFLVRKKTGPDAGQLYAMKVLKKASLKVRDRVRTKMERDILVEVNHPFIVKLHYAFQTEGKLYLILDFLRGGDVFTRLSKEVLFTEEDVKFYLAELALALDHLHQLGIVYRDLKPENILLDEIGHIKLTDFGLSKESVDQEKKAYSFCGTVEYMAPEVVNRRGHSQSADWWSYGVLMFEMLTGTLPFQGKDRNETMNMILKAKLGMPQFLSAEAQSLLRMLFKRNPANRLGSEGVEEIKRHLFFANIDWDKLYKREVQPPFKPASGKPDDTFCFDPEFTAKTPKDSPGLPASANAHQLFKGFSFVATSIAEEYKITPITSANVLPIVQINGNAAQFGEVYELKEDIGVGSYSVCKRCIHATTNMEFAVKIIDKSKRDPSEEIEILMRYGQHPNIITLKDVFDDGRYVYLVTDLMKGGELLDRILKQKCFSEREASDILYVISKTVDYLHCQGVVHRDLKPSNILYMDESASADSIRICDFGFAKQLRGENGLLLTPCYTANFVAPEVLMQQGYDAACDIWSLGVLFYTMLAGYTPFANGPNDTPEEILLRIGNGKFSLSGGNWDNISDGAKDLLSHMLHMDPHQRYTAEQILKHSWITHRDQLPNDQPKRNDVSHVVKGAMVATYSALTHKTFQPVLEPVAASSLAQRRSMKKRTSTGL", "assay": "mobility shift assay"}, "SGK2": {"biological_target": "T27, SGK2 (Homo sapiens, UniProt Q9HBY8)", "T27 construct": "purchased Carna Biosciences", "T27 sequence (Q9HBY8 whole entry)": "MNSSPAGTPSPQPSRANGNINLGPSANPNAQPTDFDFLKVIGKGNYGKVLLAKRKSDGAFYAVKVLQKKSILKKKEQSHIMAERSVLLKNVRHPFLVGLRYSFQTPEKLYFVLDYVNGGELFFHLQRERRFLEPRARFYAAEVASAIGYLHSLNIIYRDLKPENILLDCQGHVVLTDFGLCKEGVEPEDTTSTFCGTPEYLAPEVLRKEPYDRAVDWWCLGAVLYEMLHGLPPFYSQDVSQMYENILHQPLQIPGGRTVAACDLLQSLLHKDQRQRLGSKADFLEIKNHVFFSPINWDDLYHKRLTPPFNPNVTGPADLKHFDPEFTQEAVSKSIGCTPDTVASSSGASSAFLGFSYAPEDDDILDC", "assay": "mobility shift assay"}, "HCK": {"biological_target": "T28, HCK (Homo sapiens, UniProt P08631)", "T28 construct": "purchased Carna Biosciences", "assay": "mobility shift assay"}, "CaMK2β": {"biological_target": "T29, CaMK2β (Homo sapiens, UniProt Q13554)", "T29 construct": "purchased Carna Biosciences", "assay": "mobility shift assay"}, "MAP3K1_Cascade": {"biological_target": "T30, MAP3K1_Cascade (Homo sapiens, UniProt Q13233)", "T30 construct": "purchased Carna Biosciences", "assay": "mobility shift assay"}, "AKT1": {"biological_target": "T31, AKT1 (Homo sapiens, UniProt P31749)", "T31 construct": "purchased Carna Biosciences", "assay": "mobility shift assay"}, "RSK1": {"biological_target": "T32, RSK1 (Homo sapiens, UniProt Q15418)", "T32 construct": "purchased Carna Biosciences", "assay": "mobility shift assay"}, "EEF2K": {"biological_target": "T33, EEF2K (Homo sapiens, UniProt O00418)", "T33 construct": "purchased Carna Biosciences", "assay": "mobility shift assay"}, "DYRK1A": {"biological_target": "T34, DYRK1A (Homo sapiens, UniProt Q13627)", "T34 construct": "purchased Carna Biosciences", "assay": "mobility shift assay"}, "EML4-ALK": {"biological_target": "T35, EML4-ALK (Homo sapiens, UniProt Q9UM73)", "T35 construct": "EML4 (fusion partner, Q9HC35); purchased Carna Biosciences; the other entry of the earlier key: EML4 (Q9HC35, Echinoderm microtubule-associated protein-like 4)", "assay": "mobility shift assay"}, "MGC42105": {"biological_target": "T36, MGC42105 (Homo sapiens, UniProt Q8IY84)", "T36 construct": "purchased Carna Biosciences", "assay": "mobility shift assay"}, "CLK2": {"biological_target": "T37, CLK2 (Homo sapiens, UniProt P49760)", "T37 construct": "purchased Carna Biosciences", "assay": "mobility shift assay"}, "CDK4/CycD3": {"biological_target": "CDK4/CycD3 (Homo sapiens, UniProt P11802)", "assay": "IC50 by mobility shift assay", "conditions": "Table 3, CDK4, mobility shift assay; read-out: IC50 (μM), Kinase CDK4/CycD3", "excerpt": "Next, the compounds produced in Production Examples described above were each assessed for its inhibitory activity against CDK4 by mobility shift assay. In addition, a combination showing the highest inhibitory activity is indicated by italics."}, "ROCK2": {"biological_target": "T38, ROCK2 (Homo sapiens, UniProt O75116)", "T38 construct": "purchased Carna Biosciences", "assay": "mobility shift assay"}}, "data": [{"smiles": "C[C@@H]1CC[C@H]2C(C)(C)CCC[C@]2(C)c2c1oc1c(C=O)c(O)c(O)cc21", "note": "[LG-1, liphagal]", "values": [{"measurement": "inhibition at 10 µM", "setting": "DCAMKL2", "result": 14, "unit": "%"}, {"measurement": "inhibition at 10 µM", "setting": "NEK9", "result": 27.3, "unit": "%"}, {"measurement": "inhibition at 10 µM", "setting": "JAK3", "result": -7.2, "unit": "%"}, {"measurement": "inhibition at 10 µM", "setting": "IRR", "result": 23.1, "unit": "%"}, {"measurement": "inhibition at 10 µM", "setting": "PAK5", "result": -2.5, "unit": "%"}, {"measurement": "inhibition at 10 µM", "setting": "PKCζ", "result": -7.2, "unit": "%"}, {"measurement": "inhibition at 10 µM", "setting": "PAK6", "result": -99.3, "unit": "%"}, {"measurement": "inhibition at 10 µM", "setting": "INSR", "result": 14.1, "unit": "%"}, {"measurement": "inhibition at 10 µM", "setting": "MAP2K3_Cascade", "result": 25.6, "unit": "%"}, {"measurement": "inhibition at 10 µM", "setting": "PGK", "result": 6.1, "unit": "%"}, {"measurement": "inhibition at 10 µM", "setting": "NuaK1", "result": 6, "unit": "%"}, {"measurement": "inhibition at 10 µM", "setting": "TRKB", "result": 15.8, "unit": "%"}, {"measurement": "inhibition at 10 µM", "setting": "EPHA7", "result": 8.7, "unit": "%"}, {"measurement": "inhibition at 10 µM", "setting": "EGFR(α746-750)", "result": -5.1, "unit": "%"}, {"measurement": "inhibition at 10 µM", "setting": "OK1δ", "result": 4.1, "unit": "%"}, {"measurement": "inhibition at 10 µM", "setting": "IKKα", "result": 34.4, "unit": "%"}, {"measurement": "inhibition at 10 µM", "setting": "EPHB1", "result": 1.7, "unit": "%"}, {"measurement": "inhibition at 10 µM", "setting": "Haspin", "result": 3.3, "unit": "%"}, {"measurement": "inhibition at 10 µM", "setting": "LTK", "result": 1.8, "unit": "%"}, {"measurement": "inhibition at 10 µM", "setting": "DYRK3", "result": 39.2, "unit": "%"}, {"measurement": "% Inhibition", "setting": "MAPXK2 Cascade", "result": 2.7, "unit": "%"}, {"measurement": "inhibition at 10 µM", "setting": "HPK1", "result": 26.1, "unit": "%"}, {"measurement": "inhibition at 10 µM", "setting": "CDC7/ASK", "result": 26.2, "unit": "%"}, {"measurement": "inhibition at 10 µM", "setting": "PKR", "result": 13.8, "unit": "%"}, {"measurement": "inhibition at 10 µM", "setting": "Etk2", "result": 6.2, "unit": "%"}, {"measurement": "inhibition at 10 µM", "setting": "MAPKAPK3", "result": 4.8, "unit": "%"}, {"measurement": "inhibition at 10 µM", "setting": "RSK4", "result": 7.4, "unit": "%"}, {"measurement": "inhibition at 10 µM", "setting": "SGK2", "result": 9.3, "unit": "%"}, {"measurement": "inhibition at 10 µM", "setting": "HCK", "result": 4.8, "unit": "%"}, {"measurement": "inhibition at 10 µM", "setting": "CaMK2β", "result": 1.9, "unit": "%"}, {"measurement": "inhibition at 10 µM", "setting": "MAP3K1_Cascade", "result": 26.4, "unit": "%"}, {"measurement": "inhibition at 10 µM", "setting": "AKT1", "result": 3.1, "unit": "%"}, {"measurement": "inhibition at 10 µM", "setting": "RSK1", "result": 34.3, "unit": "%"}, {"measurement": "inhibition at 10 µM", "setting": "EEF2K", "result": 22.4, "unit": "%"}, {"measurement": "inhibition at 10 µM", "setting": "DYRK1A", "result": 10.5, "unit": "%"}, {"measurement": "inhibition at 10 µM", "setting": "EML4-ALK", "result": 1.1, "unit": "%"}, {"measurement": "inhibition at 10 µM", "setting": "MGC42105", "result": -1.7, "unit": "%"}, {"measurement": "inhibition at 10 µM", "setting": "CLK2", "result": -25.5, "unit": "%"}, {"measurement": "IC50", "setting": "CDK4/CycD3", "result": 19.9, "unit": "µM"}, {"measurement": "inhibition at 10 µM", "setting": "ROCK2", "result": 2, "unit": "%"}]}]}
